Reference: patent publication US9452177B2, “Vitamin D compounds and methods for reducing ocular hypertension (OHT)” (Wisconsin Alumni Research Foundation, priority 2008, dated 2016)
Entries after “also recorded” stand apart in the source; their conditions may differ.

Key:
[1] = Ocular inflammation by slit-lamp biomicroscopy; format: in vivo, cynomolgus monkeys (Macaca fascicularis); settings: Example 1; 5 topical treatments, 5 μg (2MD 6 μg)
Procedure: The intraocular pressure (IOP) was determined with a “minified” Goldmann applanation tonometer [Kaufman, 1980] using HALF AND HALF™ creamer solution (Borden) as the tear film indicator [Croft, 1997] with the monkey lying prone in a head holder and the eyes positioned 4 to 8 cm above the heart. All monkeys were examined by slit-lamp before the first IOP measurement in each protocol. For each eye, two or three IOP measurements were averaged as a baseline.
On the 3th day, prior to the 5th treatment, baseline IOP, biomicroscopy and MAP were determined. Preliminary studies indicated an effect was observed after these treatments but not after a single treatment. Following the 5th dose, IOP was measured at 1, 2, 3, 4, 5, 6, 7, 8, 12 (if possible), 24, and sometimes 48 hr. Biomicroscopy was done at 1, 3, 6, 24 and sometimes 48 hr. MAP on day 3 (some protocols) was determined at 1, 2, 3, 4, 5, 6, 7, 8, 24 and sometimes 48 hr if possible. Blood samples after the 5th treatment were collected at 6, 24, and sometimes 48 hr. For some protocols, IOP was also measured prior to each treatment; MAP was measured prior to the morning treatment; blood was collected prior to the afternoon treatment. Subsequent screening protocols will not include the MAP and blood collections and will only measure IOP at baseline and prior to and for 1-6 hr after the 5th treatment.
Baseline pretreatment IOP was determined by Goldmann applanation tonometry [Kaufman, 1980] with […] used as a tear film indicator [Croft, 1997]. Two baseline IOP measurements were taken 5 minutes apart. Monkeys were then treated topically with 5 μl of 1,25-dihydroxyvitamin D3 (1,25-(OH)2D3) (0.1-5 μg) to one eye and vehicle (propylene glycol) to the opposite eye twice a day for 5 treatments total. […] IOP was also measured prior to the afternoon treatment. On the third day, IOP was measured prior to the morning treatment. Following the fifth treatment, IOP was measured hourly for 8 hours and, in some cases, also at 12, 24, and 48 hours. […]

[2] = system: eyes of cynomolgus monkeys; test: Aqueous humor formation rate by ocular scanning fluorophotometry; format: in vivo; settings: for AHF Rx/Baseline, Vitamin D eye / AHF Rx/Baseline, Vitamin D/Vehicle / AHF ratio Vitamin D/Vehicle after treatment / Aqueous humor formation (AHF), Vitamin D eye after treatment: 5 μg
Procedure: (§1) Ocular normotensive adult cynomolgus monkeys, of either sex, weighing 3-7 kg were anesthetized with i.m. ketamine HCl (3-25 mg/kg, supplemented with 1-10 mg/kg) for IOP, topical drop administration and aqueous humor flow measurements. All monkeys were free of any ocular abnormalities according to slit lamp biomicroscopy at the time measurements were taken. For outflow facility measurements, animals were given intravenous sodium pentobarbital (15 mg/kg, supplemented with 5-10 mg/kg) following i.m. ketamine induction.
Aqueous humor formation rate was determined by ocular scanning fluorophotometry (Fluorotron Master, OcuMetrics Inc, Mountain View, Calif.) as previously described [Rasmussen, 2007]. Fluorescein drops were administered at least 30 minutes after the fourth treatment (see above) with vitamin D or vehicle. On day 3, prior to the fifth treatment, IOP and biomicroscopy were done. Following the fifth treatment scans were taken hourly, beginning 1 hour after treatment, until 6 duplicates scans were collected. Baseline scans were collected for 6 hours within 2 weeks before and at least 2 weeks after the treatment study. Post treatment aqueous humor formation rates were compared to the average of the pre and post baseline scans and to the vehicle treated eyes by the paired t-test for ratios different from 1.0. There were 8 monkeys for each treatment group.
Aqueous humor formation was measured by fluorophotometry during the interval 1-6 hr after the 5th topical bid treatment with vitamin D or vehicle to opposite eyes (see Materials and Methods). Units for aqueous humor formation are μl/min. Data are Mean±Sem. Rx, treatment (Vitamin D or vehicle) n=6.

monkey eyes = test: Outflow facility by two-level constant pressure perfusion of the anterior chamber; format: in vivo, cynomolgus monkeys; settings: for increase in outflow facilities, vitamin D treated eyes: combined n=8
Procedure: as §1
Outflow facility was determined in pentobarbital-anesthetized monkeys [Gabelt, 2004] by two-level constant pressure perfusion of the anterior chamber with Bárány's perfusand [Bárány, 1964] (n=8). Four monkeys (group A) received the single bolus injection of 1 μl of 1 μg vitamin D 1,25-dihydroxyvitamin D3 (1,25-(OH)2D3) into the anterior chamber of one eye (Treated eye) or 1 μl of propylene glycol into the anterior chamber of fellow eye (Control eye). Four monkeys (group B) were treated topically with 5 μg of vitamin D in 5 μl of propylene glycol or vehicle (5 μl of propylene glycol) twice daily for two days.
Following baseline outflow facility measurements on the third day, the fifth treatment was administered as a single bolus injection of 1 μl of 1 μg vitamin D 1,25-dihydroxyvitamin D3 (1,25-(OH)2D3) into the anterior chamber of one eye (Treated eye) or 1 μl of propylene glycol into the anterior chamber of fellow eye (Control eye). Following injections, the treatment bolus was allowed to wash in for 5 min with flow from the reservoirs. Then the contents of the anterior chamber were mixed by blowing cold air on the cornea to create convection. Reservoirs were closed for 75 minutes, then reopened and outflow facility measured for 60-90 minutes. Data were averaged for the entire 60-90 minute period and for 30-minute intervals and then were compared to baseline and to the vehicle treated eyes. Ratios were compared by the two-tailed paired t-test for ratios different from 1.0.
Baseline outflow facilities were studied in two groups (A and B) of monkeys (Materials and Methods). Group A (n=4) was treated with single bolus intracameral injection of 1 μg vitamin D (1,25-(OH)2D3) in 1 μl propylene glycol in one eye and 1 μl vehicle, propylene glycol in the control eye (Table 2, A). Group B (n=4) was treated topically with 5 μg of vitamin D in 5 μl of propylene glycol or vehicle (5 μl of propylene glycol) twice daily for two days. Then, following baseline outflow facility measurements on the third day, the fifth treatment was administered as a single bolus injection of 1 μl of 1 μg vitamin D 1,25-dihydroxyvitamin D3 (1,25-(OH)2D3) into the anterior chamber of one eye (Treated eye) or 1 μl of propylene glycol into the anterior chamber of fellow eye (Control eye).

[3] = Hours 1-3 after 5th topical bid treatment
[4] = Hours 1-6 after 5th topical bid treatment
[5] = Hours 4-6 after 5th topical bid treatment
[6] = Combined data for Groups A and B, n=8
[7] = Group A, 1 μg intracameral, n=4
[8] = Group B, 5 μg topical (4 treatments) then 1 μg intracameral, n=4

## C=C1/C(=C\C=C2/CCC[C@]3(C)[C@@H]([C@H](C)CCCC(C)(C)O)CC[C@@H]23)C[C@@H](O)C[C@@H]1O [1,25-(OH)2D3, 1α,25-dihydroxyvitamin D3]
[1]
  ocular inflammation: no ocular inflammation at any time-point
[2]; 5 μg topical, compared to baseline or vehicle eye
  change in aqueous humor formation rate: no changes in the aqueous humor formation rates; also recorded: does not change the aqueous humor formation
[2]; [3]
  AHF Rx/Baseline, Vitamin D eye: 1.06 ± 0.10
  AHF Rx/Baseline, Vitamin D/Vehicle: 1.07 ± 0.06
  AHF ratio Vitamin D/Vehicle after treatment: 0.94 ± 0.05
  Aqueous humor formation (AHF), Vitamin D eye after treatment: 1.27 ± 0.08 µL/min
[2]; [4]
  AHF Rx/Baseline, Vitamin D eye: 1.14 ± 0.06
  AHF Rx/Baseline, Vitamin D/Vehicle: 1.10 ± 0.07
  AHF ratio Vitamin D/Vehicle after treatment: 1.01 ± 0.07
  Aqueous humor formation (AHF), Vitamin D eye after treatment: 1.53 ± 0.10 µL/min
[2]; [5]
  AHF Rx/Baseline, Vitamin D eye: 1.25 ± 0.09
  AHF Rx/Baseline, Vitamin D/Vehicle: 1.22 ± 0.16
  AHF ratio Vitamin D/Vehicle after treatment: 0.98 ± 0.10
  Aqueous humor formation (AHF), Vitamin D eye after treatment: 1.54 ± 0.14 µL/min
Monkey eyes; [6]
  Cumulative 90 min outflow facility, Treated eye after Vitamin D: 0.44 ± 0.13 μl/min/mmHg
  Outflow facility Vitamin D/Baseline, Treated/Control: 0.94 ± 0.11
  Outflow facility ratio Treated/Control after Vitamin D: 0.87 ± 0.16
Monkey eyes; Combined data for Groups A and B, n=8, *p<0.05 vs 1.0
  Outflow facility Vitamin D/Baseline, Treated eye: 1.59 ± 0.19*
Monkey eyes; [7]
  Cumulative 90 min outflow facility, Treated eye after Vitamin D: 0.37 ± 0.07 μl/min/mmHg
  Outflow facility Vitamin D/Baseline, Treated eye: 1.80 ± 0.30
  Outflow facility Vitamin D/Baseline, Treated/Control: 1.04 ± 0.13
  Outflow facility ratio Treated/Control after Vitamin D: 0.82 ± 0.20
Monkey eyes; [8]
  Cumulative 90 min outflow facility, Treated eye after Vitamin D: 0.51 ± 0.26 μl/min/mmHg
  Outflow facility Vitamin D/Baseline, Treated eye: 1.39 ± 0.45
  Outflow facility Vitamin D/Baseline, Treated/Control: 0.84 ± 0.18
  Outflow facility ratio Treated/Control after Vitamin D: 0.91 ± 0.27
Monkey eyes; at 60 min, significant
  increase in outflow facilities, vitamin D treated eyes: 60%
Monkey eyes; at 90 min, significant
  increase in outflow facilities, vitamin D treated eyes: 115%
Monkey eyes; at 90 min after the intracameral injections
  increase in outflow facilities over baseline, both eyes: about 100%
Monkey eyes; cumulative 90 min, groups A and B and combined
  outflow facility, vitamin D versus vehicle treated eyes: no significant differences were found neither between the vitamin D or vehicle treated eyes; also recorded: did not change either the aqueous humor flow or the outflow facilities
Monkey eyes; first 30 min after the bolus injection, non-significant
  increase in outflow facilities, vitamin D treated eyes: 10%
